Target: GLP1R (Homo sapiens, UniProt P43220)
Experiment: GLP1R cAMP HTRF assay, HEK293/GLP-1R/CRE/Luc (HEK293T cells)
Type: cell-based
Details: read-out: EC50
How it was run: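 cAMP accumulation via HTRF after 30 min, 37 °C exposure of 1000 receptor-expressing cells/well to compound (0.5% DMSO final) in IBMX (500 μM)/0.1% BSA DPBS.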

Sequence of GLP1R (P43220 24-463): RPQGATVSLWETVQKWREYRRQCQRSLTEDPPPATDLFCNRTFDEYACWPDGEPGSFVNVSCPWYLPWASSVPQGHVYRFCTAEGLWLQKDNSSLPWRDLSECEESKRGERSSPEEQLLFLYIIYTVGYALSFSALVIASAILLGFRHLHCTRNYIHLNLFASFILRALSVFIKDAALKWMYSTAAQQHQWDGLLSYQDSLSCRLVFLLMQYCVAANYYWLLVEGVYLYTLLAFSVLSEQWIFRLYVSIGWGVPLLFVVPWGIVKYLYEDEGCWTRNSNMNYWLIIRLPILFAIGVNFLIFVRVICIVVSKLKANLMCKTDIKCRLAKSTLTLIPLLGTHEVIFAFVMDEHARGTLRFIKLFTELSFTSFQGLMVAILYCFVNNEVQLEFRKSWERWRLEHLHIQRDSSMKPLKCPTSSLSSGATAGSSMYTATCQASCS

| Compound | EC50 [nM] |
| --- | --- |
| O=C(O)c1ccc2nc(CN3CCN(c4nccc(OCc5ccc(Cl)cc5F)n4)CC3)n(C[C@@H]3CCO3)c2c1 [Compound 181, (S)-2-((4-(4-((4-chloro-2-fluorobenzyl)oxy)pyrimidin-2-yl)piperazin-1-yl)methyl)-1-(oxetan-2-ylmethyl)-1H-benzo[d]imidazole-6-carboxylic acid] | ≤ 15 |
| O=C(O)c1ccc2nc(CN3CC=C(c4ccnc(OCc5ccc(Cl)cc5F)c4)CC3)n(C[C@@H]3CCO3)c2c1 [Compound 31, (S)-2-((2′-((4-chloro-2-fluorobenzyl)oxy)-3,6-dihydro-[4,4′-bipyridin]-1(2H)-yl)methyl)-1-(oxetan-2-ylmethyl)-1H-benzo[d]imidazole-6-carboxylic add] | ≤ 1000 |
| O=C(O)c1ccc2nc(CN3CC=C(c4cccc(OC5CCOc6cc(Cl)ccc65)n4)CC3)n(C[C@@H]3CCO3)c2c1 (stereo partly drawn) [Compound 69, 2-((6-((7-chlorochroman-4-yl)oxy)-5′,6′-dihydro-[2,4′-bipyridin]-1′(2′H)-yl)methyl)-1-((S)-oxetan-2-ylmethyl)-1H-benzo[d]imidazole-6-carboxylic add] | ≤ 1000 |
| O=C(O)c1ccc2nc(CN3CC=C(c4cccc(OCc5ccc6c(c5)OCO6)n4)CC3)n(C[C@@H]3CCO3)c2c1 [Compound 152] | ≤ 15 |
| N#Cc1ccc(COc2cccc(N3CCC(Cc4nc5ccc(C(=O)O)nc5n4C[C@@H]4CCO4)CC3)n2)nc1 [Compound 231, (S)-2-((l-(6-((5-cyanopyridin-2-yl)methoxy)pyridin-2-yl)piperidin-4-yl)methyl)-3-(oxetan-2-ylmethyl)-3H-imidazo[4,5-b]pyridine-5-carboxylic acid] | ≤ 150 |
| O=C(O)c1ccc2nc(CN3CCC(c4cccc(OCc5ccc(C#CC6CC6)cc5F)c4)CC3)n(C[C@@H]3CCO3)c2c1 [Compound 192, (S)-2-((4-(3-((4-(cyclopropylethynyl)-2-fluorobenzyl)oxy)phenyl)piperidin-1-yl)methyl)-1-(oxetan-2-ylmethyl)-1H-benzo[d]imidazole-6-carboxylic acid] | ≤ 150 |
| O=C(O)c1ccc2nc(CN3CC=C(c4ccc5ccn(Cc6ccc(Cl)cc6F)c5n4)CC3)n(C[C@@H]3CCO3)c2c1 [Compound 25, (S)-2-((4-(1-(4-chloro-2-fluorobenzyl)-1 h-pyrrolo[2,3-b]pyridin-6-yl)-5,6-dihydropyridin-1(2H)-yl)methyl)-1-(oxetan-2-ylmethyl)-1 h-benzo[d]imidazole-6-carboxylic acid] | ≤ 150 |
| O=C(O)c1ccc2nc(CN3CC=C(c4cccc(OCc5ccc(F)cc5Cl)n4)CC3)n(C[C@@H]3CCO3)c2c1 [Compound 144, (S)-2-((6-((2-chloro-4-fluorobenzyl)oxy)-3′,6′-dihydro-[2,4′-bipyridin]-1′(2′H)-yl)methyl)-1-(oxetan-2-ylmethyl)-1H-benzo[d]imidazole-6-carboxylic acid] | ≤ 15 |
| N#Cc1ccc(COc2ccc(F)c(C3=CCN(Cc4nc5ccc(C(=O)O)cc5n4C[C@@H]4CCO4)CC3)c2)c(F)c1 [Compound 206, (S)-2-((4-(5-((4-cyano-2-fluorobenzyl)oxy)-2-fluorophenyl)-3,6-dihydropyridin-1(2H)-yl)methyl)-1-(oxetan-2-ylmethyl)-1H-benzo[d]imidazole-6-carboxylic add] | ≤ 15 |
| O=C(O)c1ccc2nc(CN3CC=C(n4cccc(OCc5ccc(Cl)cc5F)c4=O)CC3)n(C[C@@H]3CCO3)c2c1 [Compound 51, (S)-2-((4-(3-(4-chloro-2-fluorobenzyloxy)-2-oxopyridin-1(2H)-yl)-5,6-dihydropyridin-1(2H)-yl)methyl)-1-(oxetan-2-ylmethyl)-1 h-benzo[d]imidazole-6-carboxylic acid] | > 1000 |
| N#Cc1ccc(COc2cccc(N3CCN(Cc4nc5ccc(C(=O)O)nc5n4C[C@@H]4CCO4)CC3=O)n2)c(F)c1 [Compound 234, (S)-2-((4-(6-(4-cyano-2-fluorobenzyloxy)pyridin-2-yl)-3-oxopiperazin-1-yl)methyl)-3-(oxetan-2-ylmethyl)-3H-imidazo[4,5-b]pyridine-5-carboxylic acid] | ≤ 150 |
| Cc1cc2nc(CN3CC=C(c4cccc(OCc5ccc(Cl)cc5)n4)CC3)n(C[C@@H]3CCO3)c2cc1C(=O)O [Compound 111, (S)-2-((4-(6-(4-chlorobenzyloxy)pyridin-2-yl)-5,6-dihydropyridin-1(2H)-yl)methyl)-5-methyl-1-(oxetan-2-ylmethyl)-1H-benzo[d]imidazole-6-carboxylic acid] | ≤ 15 |
| O=C(O)c1ccc2nc(CN3CC=C(c4ccc(F)c(OCc5ccc(C#CC6CC6)cc5F)c4)CC3)n(C[C@@H]3CCO3)c2c1 [Compound 202, (S)-2-((4-(3-((4-(cyclopropylethynyl)-2-fluorobenzyl)oxy)-4-fluorophenyl)-3,6-dihydropyridin-1(2H)-yl)methyl)-1-(oxetan-2-ylmethyl)-1H-benzo[d]imidazole-6-carboxylic acid] | ≤ 150 |
| O=C(O)c1ccc2nc(CN3CC=C(c4cccc(NC5CCOc6cc(Cl)ccc65)n4)CC3)n(C[C@@H]3CCO3)c2c1 (stereo partly drawn) [Compound 61, 2-((4-(6-(7-chlorochroman-4-ylamino)pyridin-2-yl)-5,6-dihydropyridin-1(2H)-yl)methyl)-1-((S)-oxetan-2-ylmethyl)-1H-benzo[d]imidazole-6-carboxylic acid] | ≤ 1000 |
| N#Cc1ccc(COc2cccc(N3CCC(Cc4nc5ccc(C(=O)O)c(F)c5n4C[C@@H]4CCO4)CC3)n2)nc1 [Compound 233, (S)-2-((l-(6-((5-cyanopyridin-2-yl)methoxy)pyridin-2-yl)piperidin-4-yl)methyl)-7-fluoro-1-(oxetan-2-ylmethyl)-1H-benzo[d]imidazole-6-carboxylic add] | ≤ 150 |
| O=C(O)c1ccc2nc(CN3CCN(c4ccc(=O)n(CCc5ccc(Cl)cc5F)n4)CC3)n(C[C@@H]3CCO3)c2c1 [Compound 6, (S)-2-((4-(1-(4-chloro-2-fluorophenethyl)-6-oxo-1,6-dihydropyridazin-3-yl)piperazin-1-yl)methyl)-1-(oxetan-2-ylmethyl)-1 h-benzo[d]imidazole-6-carboxylic add] | > 1000 |
| N#Cc1ccc(COc2cc(N3CCN(Cc4nc5ccc(C(=O)O)cc5n4C[C@@H]4CCO4)CC3)ccc2F)c(F)c1 [Compound 195, (S)-2-((4-(3-((4-cyano-2-fluorobenzyl)oxy)-4-fluorophenyl)piperazin-1-yl)methyl)-1-(oxetan-2-ylmethyl)-1H-benzo[d]imidazole-6-carboxylic add] | ≤ 15 |
| O=C(O)c1ccc2nc(CN3CCN(c4ccc5ccn(Cc6ccc(Cl)cc6F)c5c4)CC3)n(C[C@@H]3CCO3)c2c1 [Compound 14, (S)-2-((4-(1-(4-chloro-2-fluorobenzyl)-th-indol-6-yl)piperazin-1-yl)methyl)-1-(oxetan-2-ylmethyl)-1 h-benzo[d]imidazole-6-carboxylic acid] | > 1000 |
| O=C(O)c1ccc2nc(CN3CC=C(c4cc5cc[nH]c5c(OCc5ccc(Cl)cc5F)n4)CC3)n(C[C@@H]3CCO3)c2c1 [Compound 48, (S)-2-((4-(7-((4-chloro-2-fluorobenzyl)oxy)-1 h-pyrrolo[2,3-c]pyridin-5-yl)-3,6-dihydropyridin-1(2H)-yl)methyl)-1-(oxetan-2-ylmethyl)-1 h-benzo[d]imidazole-6-carboxylic acid] | ≤ 150 |

— patent US10844049B2, “GLP-1R agonists and uses thereof” (QILU REGOR THERAPEUTICS INC., priority 2018, dated 2020)
